One data set deals with TMEM63B. Briefly: reporter assay of Huesken 2005. The following applies: siRNA.
The next data set concerns the target Mmp7 (rat). Briefly: reporter assay of Huesken 2005. Conditions: siRNA. On the technique in general: Reporter assays use an easily measured gene product as a stand-in for the process of interest.

Oligonucleotides are given in HELM: sugar(base)linkage, 5' to 3'; d 2'-deoxyribose, r ribose, m 2'-O-methylribose, p phosphate. ss, as = sense and antisense strand
Also: test concentration or dose not given here.

As for “RNA1{r(U)p.r(G)p.r(C)p.r(C)p.r(A)p.r(C)p.r(C)p.r(C)p.r(G)p.r(A)p.r(C)p.r(G)p.r(C)p.r(C)p.r(C)p.r(U)p.r(C)p.r(A)p.r(C)p.d(T)p.d(T)}|RNA2{r(G)p.r(U)p.r(G)p.r(A)p.r(G)p.r(G)p.r(G)p.r(C)p.r(G)p.r(U)p.r(C)p.r(G)p.r(G)p.r(G)p.r(U)p.r(G)p.r(G)p.r(C)p.r(A)p.d(T)p.d(C)}$$$RNA1{StrandType:ss}|RNA2{StrandType:as}$”, the normalised inhibition (eCFP-eYFP dual reporter) with TMEM63B worked out at 12.7%. As to “RNA1{r(A)p.r(U)p.r(C)p.r(U)p.r(G)p.r(C)p.r(G)p.r(A)p.r(A)p.r(A)p.r(U)p.r(A)p.r(C)p.r(A)p.r(U)p.r(C)p.r(G)p.r(C)p.r(U)p.d(T)p.d(T)}|RNA2{r(A)p.r(G)p.r(C)p.r(G)p.r(A)p.r(U)p.r(G)p.r(U)p.r(A)p.r(U)p.r(U)p.r(U)p.r(C)p.r(G)p.r(C)p.r(A)p.r(G)p.r(A)p.r(U)p.d(T)p.d(T)}$$$RNA1{StrandType:ss}|RNA2{StrandType:as}$”, the normalised inhibition (eCFP-eYFP dual reporter) with TMEM63B came to 50.5%. Still for that read-out and setting: under “RNA1{r(U)p.r(G)p.r(C)p.r(A)p.r(C)p.r(A)p.r(A)p.r(G)p.r(U)p.r(G)p.r(C)p.r(U)p.r(A)p.r(C)p.r(A)p.r(C)p.r(U)p.r(U)p.r(U)p.d(T)p.d(T)}|RNA2{r(A)p.r(A)p.r(A)p.r(G)p.r(U)p.r(G)p.r(U)p.r(A)p.r(G)p.r(C)p.r(A)p.r(C)p.r(U)p.r(U)p.r(G)p.r(U)p.r(G)p.r(C)p.r(A)p.d(T)p.d(G)}$$$RNA1{StrandType:ss}|RNA2{StrandType:as}$” stands 99.1%; under “RNA1{r(A)p.r(C)p.r(C)p.r(A)p.r(G)p.r(G)p.r(U)p.r(G)p.r(G)p.r(U)p.r(G)p.r(G)p.r(C)p.r(C)p.r(G)p.r(C)p.r(G)p.r(C)p.r(C)p.d(T)p.d(T)}|RNA2{r(G)p.r(G)p.r(C)p.r(G)p.r(C)p.r(G)p.r(G)p.r(C)p.r(C)p.r(A)p.r(C)p.r(C)p.r(A)p.r(C)p.r(C)p.r(U)p.r(G)p.r(G)p.r(U)p.d(T)p.d(C)}$$$RNA1{StrandType:ss}|RNA2{StrandType:as}$”, 57.6%. On the same count and under the same terms, under “RNA1{r(C)p.r(A)p.r(U)p.r(C)p.r(U)p.r(G)p.r(G)p.r(U)p.r(G)p.r(G)p.r(C)p.r(U)p.r(G)p.r(C)p.r(G)p.r(C)p.r(U)p.r(G)p.r(C)p.d(T)p.d(T)}|RNA2{r(G)p.r(C)p.r(A)p.r(G)p.r(C)p.r(G)p.r(C)p.r(A)p.r(G)p.r(C)p.r(C)p.r(A)p.r(C)p.r(C)p.r(A)p.r(G)p.r(A)p.r(U)p.r(G)p.d(A)p.d(A)}$$$RNA1{StrandType:ss}|RNA2{StrandType:as}$” stands 29.3%; under “RNA1{r(C)p.r(C)p.r(U)p.r(G)p.r(G)p.r(U)p.r(C)p.r(A)p.r(U)p.r(C)p.r(A)p.r(A)p.r(U)p.r(G)p.r(U)p.r(C)p.r(G)p.r(U)p.r(C)p.d(T)p.d(T)}|RNA2{r(G)p.r(A)p.r(C)p.r(G)p.r(A)p.r(C)p.r(A)p.r(U)p.r(U)p.r(G)p.r(A)p.r(U)p.r(G)p.r(A)p.r(C)p.r(C)p.r(A)p.r(G)p.r(G)p.d(C)p.d(A)}$$$RNA1{StrandType:ss}|RNA2{StrandType:as}$”, 60.4%.

For “RNA1{r(U)p.r(C)p.r(U)p.r(U)p.r(C)p.r(A)p.r(U)p.r(C)p.r(C)p.r(U)p.r(C)p.r(C)p.r(U)p.r(C)p.r(U)p.r(U)p.r(C)p.r(U)p.r(U)p.d(T)p.d(T)}|RNA2{r(A)p.r(A)p.r(G)p.r(A)p.r(A)p.r(G)p.r(A)p.r(G)p.r(G)p.r(A)p.r(G)p.r(G)p.r(A)p.r(U)p.r(G)p.r(A)p.r(A)p.r(G)p.r(A)p.d(G)p.d(G)}$$$RNA1{StrandType:ss}|RNA2{StrandType:as}$”, in the data set with TMEM63B, the normalised inhibition (eCFP-eYFP dual reporter) came to 58.4%. Same read-out and setting: under “RNA1{r(C)p.r(A)p.r(G)p.r(C)p.r(U)p.r(C)p.r(C)p.r(G)p.r(U)p.r(U)p.r(G)p.r(A)p.r(C)p.r(U)p.r(U)p.r(U)p.r(G)p.r(A)p.r(C)p.d(T)p.d(T)}|RNA2{r(G)p.r(U)p.r(C)p.r(A)p.r(A)p.r(A)p.r(G)p.r(U)p.r(C)p.r(A)p.r(A)p.r(C)p.r(G)p.r(G)p.r(A)p.r(G)p.r(C)p.r(U)p.r(G)p.d(G)p.d(A)}$$$RNA1{StrandType:ss}|RNA2{StrandType:as}$” stands 84.4%; under “RNA1{r(G)p.r(C)p.r(G)p.r(A)p.r(A)p.r(A)p.r(U)p.r(A)p.r(C)p.r(A)p.r(U)p.r(C)p.r(G)p.r(C)p.r(U)p.r(C)p.r(A)p.r(G)p.r(G)p.d(T)p.d(T)}|RNA2{r(C)p.r(C)p.r(U)p.r(G)p.r(A)p.r(G)p.r(C)p.r(G)p.r(A)p.r(U)p.r(G)p.r(U)p.r(A)p.r(U)p.r(U)p.r(U)p.r(C)p.r(G)p.r(C)p.d(A)p.d(G)}$$$RNA1{StrandType:ss}|RNA2{StrandType:as}$”, 40.2%; under “RNA1{r(A)p.r(U)p.r(C)p.r(A)p.r(A)p.r(U)p.r(G)p.r(U)p.r(C)p.r(G)p.r(U)p.r(C)p.r(C)p.r(U)p.r(C)p.r(U)p.r(U)p.r(C)p.r(A)p.d(T)p.d(T)}|RNA2{r(U)p.r(G)p.r(A)p.r(A)p.r(G)p.r(A)p.r(G)p.r(G)p.r(A)p.r(C)p.r(G)p.r(A)p.r(C)p.r(A)p.r(U)p.r(U)p.r(G)p.r(A)p.r(U)p.d(G)p.d(A)}$$$RNA1{StrandType:ss}|RNA2{StrandType:as}$”, 49.2%.

With “RNA1{r(G)p.r(C)p.r(U)p.r(G)p.r(C)p.r(C)p.r(U)p.r(G)p.r(G)p.r(C)p.r(C)p.r(C)p.r(U)p.r(G)p.r(C)p.r(C)p.r(A)p.r(C)p.r(U)p.d(T)p.d(T)}|RNA2{r(A)p.r(G)p.r(U)p.r(G)p.r(G)p.r(C)p.r(A)p.r(G)p.r(G)p.r(G)p.r(C)p.r(C)p.r(A)p.r(G)p.r(G)p.r(C)p.r(A)p.r(G)p.r(C)p.d(C)p.d(T)}$$$RNA1{StrandType:ss}|RNA2{StrandType:as}$”, the normalised inhibition (eCFP-eYFP dual reporter) with Mmp7 (rat) was determined as 64.3%. Still for that read-out and setting: under “RNA1{r(U)p.r(U)p.r(U)p.r(A)p.r(C)p.r(C)p.r(U)p.r(U)p.r(C)p.r(A)p.r(C)p.r(G)p.r(A)p.r(C)p.r(U)p.r(C)p.r(U)p.r(A)p.r(A)p.d(T)p.d(T)}|RNA2{r(U)p.r(U)p.r(A)p.r(G)p.r(A)p.r(G)p.r(U)p.r(C)p.r(G)p.r(U)p.r(G)p.r(A)p.r(A)p.r(G)p.r(G)p.r(U)p.r(A)p.r(A)p.r(A)p.d(A)p.d(T)}$$$RNA1{StrandType:ss}|RNA2{StrandType:as}$” stands 110%; under “RNA1{r(A)p.r(A)p.r(C)p.r(A)p.r(A)p.r(A)p.r(G)p.r(A)p.r(A)p.r(G)p.r(G)p.r(C)p.r(C)p.r(A)p.r(C)p.r(C)p.r(A)p.r(G)p.r(U)p.d(T)p.d(T)}|RNA2{r(A)p.r(C)p.r(U)p.r(G)p.r(G)p.r(U)p.r(G)p.r(G)p.r(C)p.r(C)p.r(U)p.r(U)p.r(C)p.r(U)p.r(U)p.r(U)p.r(G)p.r(U)p.r(U)p.d(T)p.d(T)}$$$RNA1{StrandType:ss}|RNA2{StrandType:as}$”, 87.1%. The same measure, in the same setting: to “RNA1{r(C)p.r(G)p.r(G)p.r(C)p.r(G)p.r(G)p.r(A)p.r(G)p.r(A)p.r(U)p.r(G)p.r(C)p.r(U)p.r(C)p.r(A)p.r(C)p.r(U)p.r(U)p.r(U)p.d(T)p.d(T)}|RNA2{r(A)p.r(A)p.r(A)p.r(G)p.r(U)p.r(G)p.r(A)p.r(G)p.r(C)p.r(A)p.r(U)p.r(C)p.r(U)p.r(C)p.r(C)p.r(G)p.r(C)p.r(C)p.r(G)p.d(A)p.d(G)}$$$RNA1{StrandType:ss}|RNA2{StrandType:as}$” belongs 118%; to “RNA1{r(U)p.r(C)p.r(U)p.r(G)p.r(U)p.r(U)p.r(C)p.r(C)p.r(C)p.r(A)p.r(G)p.r(U)p.r(U)p.r(C)p.r(U)p.r(G)p.r(U)p.r(G)p.r(A)p.d(T)p.d(T)}|RNA2{r(U)p.r(C)p.r(A)p.r(C)p.r(A)p.r(G)p.r(A)p.r(A)p.r(C)p.r(U)p.r(G)p.r(G)p.r(G)p.r(A)p.r(A)p.r(C)p.r(A)p.r(G)p.r(A)p.d(A)p.d(G)}$$$RNA1{StrandType:ss}|RNA2{StrandType:as}$”, 99.6%; to “RNA1{r(U)p.r(G)p.r(U)p.r(G)p.r(A)p.r(U)p.r(G)p.r(U)p.r(A)p.r(C)p.r(C)p.r(C)p.r(U)p.r(A)p.r(C)p.r(C)p.r(U)p.r(A)p.r(U)p.d(T)p.d(T)}|RNA2{r(A)p.r(U)p.r(A)p.r(G)p.r(G)p.r(U)p.r(A)p.r(G)p.r(G)p.r(G)p.r(U)p.r(A)p.r(C)p.r(A)p.r(U)p.r(C)p.r(A)p.r(C)p.r(A)p.d(G)p.d(A)}$$$RNA1{StrandType:ss}|RNA2{StrandType:as}$”, 107%. “RNA1{r(U)p.r(A)p.r(U)p.r(C)p.r(U)p.r(U)p.r(A)p.r(G)p.r(G)p.r(A)p.r(A)p.r(A)p.r(U)p.r(U)p.r(U)p.r(U)p.r(A)p.r(C)p.r(C)p.d(T)p.d(T)}|RNA2{r(G)p.r(G)p.r(U)p.r(A)p.r(A)p.r(A)p.r(A)p.r(U)p.r(U)p.r(U)p.r(C)p.r(C)p.r(U)p.r(A)p.r(A)p.r(G)p.r(A)p.r(U)p.r(A)p.d(A)p.d(T)}$$$RNA1{StrandType:ss}|RNA2{StrandType:as}$”: the normalised inhibition (eCFP-eYFP dual reporter) in the data set with Mmp7 (rat) came to 28.4%. Turning to “RNA1{r(G)p.r(C)p.r(C)p.r(U)p.r(U)p.r(U)p.r(G)p.r(C)p.r(A)p.r(C)p.r(C)p.r(G)p.r(G)p.r(G)p.r(G)p.r(C)p.r(C)p.r(A)p.r(G)p.d(T)p.d(T)}|RNA2{r(C)p.r(U)p.r(G)p.r(G)p.r(C)p.r(C)p.r(C)p.r(C)p.r(G)p.r(G)p.r(U)p.r(G)p.r(C)p.r(A)p.r(A)p.r(A)p.r(G)p.r(G)p.r(C)p.d(A)p.d(T)}$$$RNA1{StrandType:ss}|RNA2{StrandType:as}$”, the normalised inhibition (eCFP-eYFP dual reporter) with Mmp7 (rat) was found to be 32.6%. On the same count and under the same terms, to “RNA1{r(G)p.r(G)p.r(A)p.r(A)p.r(G)p.r(C)p.r(C)p.r(G)p.r(G)p.r(A)p.r(G)p.r(A)p.r(A)p.r(G)p.r(U)p.r(G)p.r(A)p.r(C)p.r(C)p.d(T)p.d(T)}|RNA2{r(G)p.r(G)p.r(U)p.r(C)p.r(A)p.r(C)p.r(U)p.r(U)p.r(C)p.r(U)p.r(C)p.r(C)p.r(G)p.r(G)p.r(C)p.r(U)p.r(U)p.r(C)p.r(C)p.d(T)p.d(G)}$$$RNA1{StrandType:ss}|RNA2{StrandType:as}$” belongs 83%. In the case of “RNA1{r(G)p.r(A)p.r(A)p.r(G)p.r(U)p.r(G)p.r(A)p.r(C)p.r(C)p.r(G)p.r(C)p.r(A)p.r(C)p.r(U)p.r(U)p.r(C)p.r(A)p.r(G)p.r(U)p.d(T)p.d(T)}|RNA2{r(A)p.r(C)p.r(U)p.r(G)p.r(A)p.r(A)p.r(G)p.r(U)p.r(G)p.r(C)p.r(G)p.r(G)p.r(U)p.r(C)p.r(A)p.r(C)p.r(U)p.r(U)p.r(C)p.d(T)p.d(C)}$$$RNA1{StrandType:ss}|RNA2{StrandType:as}$”, the normalised inhibition (eCFP-eYFP dual reporter) with Mmp7 (rat) worked out at 40.5%.

(Values after the OligoGym collection.)
